Reference: ChEMBL document CHEMBL3526033, “Identification of human liver cytochrome P450 enzymes involved in the metabolism of SCH 530348 (Vorapaxar), a potent oral thrombin protease-activated receptor 1 antagonist” (Drug Metab Dispos, 2011)

Experiments:
Format in all cases: ADME
Cytochrome P450 2J2 = target: T1, Cytochrome P450 2J2 (Homo sapiens, UniProt P51589); assay: Drug metabolism in human liver microsomes assessed as CYP2J2-mediated (3R,3aS,4S,4aR,7R,8aR,9aR)-7-amino-4-((E)-2-(5-(3-fluorophenyl)pyridin-2-yl)vinyl)-3-methyldecahydronaphtho[2,3-c]furan-1(3H)-one formation at 25 uM after 120 mins by LC-MS/MS analysis; conditions: 2 h
T1 sequence (P51589 whole entry): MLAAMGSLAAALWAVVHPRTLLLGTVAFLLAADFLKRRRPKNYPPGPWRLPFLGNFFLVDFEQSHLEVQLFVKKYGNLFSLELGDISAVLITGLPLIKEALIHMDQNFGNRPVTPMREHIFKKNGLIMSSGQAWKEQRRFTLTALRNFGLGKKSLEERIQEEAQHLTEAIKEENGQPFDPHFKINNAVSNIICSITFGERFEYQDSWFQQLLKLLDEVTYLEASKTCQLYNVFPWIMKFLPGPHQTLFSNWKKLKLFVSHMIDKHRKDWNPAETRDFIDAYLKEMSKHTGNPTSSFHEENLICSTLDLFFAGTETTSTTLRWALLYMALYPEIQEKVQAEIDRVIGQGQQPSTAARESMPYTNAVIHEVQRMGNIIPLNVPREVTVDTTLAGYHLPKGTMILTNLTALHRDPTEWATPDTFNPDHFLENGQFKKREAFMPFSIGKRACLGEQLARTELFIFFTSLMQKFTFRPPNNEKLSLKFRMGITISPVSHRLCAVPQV

Cytochrome P450 2E1 = Cytochrome P450 2E1 (Homo sapiens, UniProt P05181); assay: Activity of human recombinant CYP2E1 assessed as enzyme-mediated drug metabolism treated with 25 uM vorapaxar after 120 mins by LC-MS/MS analysis in presence of NADPH; conditions: 2 h
Chain of Cytochrome P450 2E1 (P05181 whole entry): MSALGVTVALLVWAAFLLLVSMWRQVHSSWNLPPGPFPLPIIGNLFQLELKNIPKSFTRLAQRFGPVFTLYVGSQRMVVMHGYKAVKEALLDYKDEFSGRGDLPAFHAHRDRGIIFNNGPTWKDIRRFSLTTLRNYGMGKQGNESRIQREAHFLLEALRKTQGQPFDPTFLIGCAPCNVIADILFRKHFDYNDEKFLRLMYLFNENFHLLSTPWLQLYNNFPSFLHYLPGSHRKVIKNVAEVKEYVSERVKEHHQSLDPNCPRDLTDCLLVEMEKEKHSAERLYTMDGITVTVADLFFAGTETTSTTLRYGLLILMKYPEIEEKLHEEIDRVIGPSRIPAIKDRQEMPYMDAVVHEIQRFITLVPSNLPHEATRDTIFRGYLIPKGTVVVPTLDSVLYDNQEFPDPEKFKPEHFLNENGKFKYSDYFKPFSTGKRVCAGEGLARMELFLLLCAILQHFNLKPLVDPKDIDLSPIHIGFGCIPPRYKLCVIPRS

Liver microsome [1] = assay: Drug metabolism in human liver microsomes assessed as 2-hydroxyethyl (1R,3aR,4aR,6R,8aR,9S,9aS)-9-((E)-2-(5-(3-fluorophenyl)pyridin-2-yl)vinyl)-1-methyl-3-oxododecahydronaphtho[2,3-c]furan-6-ylcarbamate formation at 25 uM after 120 mins by LC-MS/MS analysis in presence of CYP3A4-specific inhibitory monoclonal antibody; conditions: 2 h
Liver microsome [2] = assay: Drug metabolism in human liver microsomes overexpressing CYP3A4 assessed as (3R,3aS,4S,4aR,7R,8aR,9aR)-7-amino-4-((E)-2-(5-(3-fluorophenyl)pyridin-2-yl)vinyl)-3-methyldecahydronaphtho[2,3-c]furan-1(3H)-one formation at 25 uM after 120 mins by LC-MS/MS analysis in presence of ketoconazole; conditions: 2 h
Liver microsome [3] = assay: Drug metabolism in human liver microsomes assessed as 2-hydroxyethyl (1R,3aR,4aR,6R,8aR,9S,9aS)-9-((E)-2-(5-(3-fluorophenyl)pyridin-2-yl)vinyl)-1-methyl-3-oxododecahydronaphtho[2,3-c]furan-6-ylcarbamate formation at 25 uM after 120 mins by LC-MS/MS analysis in presence of astemizole; conditions: 2 h
Cytochrome P450 3A4 = Cytochrome P450 3A4 (Homo sapiens, UniProt P08684); assay: Drug metabolism assessed as human recombinant CYP3A4-mediated 2-hydroxyethyl (1R,3aR,4aR,6R,8aR,9S,9aS)-9-((E)-2-(5-(3-fluorophenyl)pyridin-2-yl)vinyl)-1-methyl-3-oxododecahydronaphtho[2,3-c]furan-6-ylcarbamate formation at 25 uM after 120 mins by LC-MS/MS analysis in presence of astemizole; conditions: recombinant enzyme, 2 h
Chain of Cytochrome P450 3A4 (P08684 whole entry): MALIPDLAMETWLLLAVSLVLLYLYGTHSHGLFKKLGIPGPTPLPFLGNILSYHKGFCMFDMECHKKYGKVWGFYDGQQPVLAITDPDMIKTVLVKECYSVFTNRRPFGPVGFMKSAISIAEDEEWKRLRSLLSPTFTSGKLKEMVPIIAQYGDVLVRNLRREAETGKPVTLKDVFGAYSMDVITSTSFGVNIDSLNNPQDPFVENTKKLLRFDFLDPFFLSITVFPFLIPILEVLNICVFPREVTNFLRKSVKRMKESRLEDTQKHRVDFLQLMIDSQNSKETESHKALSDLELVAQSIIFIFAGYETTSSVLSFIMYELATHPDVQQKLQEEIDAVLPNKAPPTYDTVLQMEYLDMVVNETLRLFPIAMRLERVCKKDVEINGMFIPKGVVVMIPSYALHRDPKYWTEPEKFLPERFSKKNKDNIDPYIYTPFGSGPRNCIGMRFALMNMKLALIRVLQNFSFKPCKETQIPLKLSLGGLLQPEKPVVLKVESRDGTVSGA

[4] = Drug metabolism in human liver microsomes assessed as compound remaining at 10 uM after 120 mins by LC-MS/MS analysis in presence of NADPH; conditions: read-out: Compound recovery
CYP1A1 = CYP1A1 (Homo sapiens, UniProt P04798); assay: Activity of human recombinant CYP1A1 assessed as enzyme-mediated drug metabolism at 10 uM after 120 mins by LC-MS/MS analysis in presence of NADPH; conditions: read-out: Compound recovery
Chain of CYP1A1 (P04798 whole entry): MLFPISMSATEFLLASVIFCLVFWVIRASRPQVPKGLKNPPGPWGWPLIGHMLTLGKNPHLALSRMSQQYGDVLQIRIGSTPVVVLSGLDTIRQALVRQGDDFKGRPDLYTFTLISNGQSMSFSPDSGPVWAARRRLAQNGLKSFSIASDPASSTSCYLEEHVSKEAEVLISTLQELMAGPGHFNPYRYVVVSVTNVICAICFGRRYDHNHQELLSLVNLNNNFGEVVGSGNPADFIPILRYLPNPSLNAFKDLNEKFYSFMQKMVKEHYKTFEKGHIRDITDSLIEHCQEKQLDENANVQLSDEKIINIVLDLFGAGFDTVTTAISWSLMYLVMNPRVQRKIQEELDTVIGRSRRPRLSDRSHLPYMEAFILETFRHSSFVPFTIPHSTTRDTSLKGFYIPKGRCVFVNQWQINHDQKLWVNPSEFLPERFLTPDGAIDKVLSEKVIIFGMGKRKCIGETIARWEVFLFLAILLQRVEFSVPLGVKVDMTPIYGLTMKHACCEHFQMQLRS

CYP2D6 = CYP2D6 (Homo sapiens, UniProt P10635); assay: Activity of human recombinant CYP2D6 assessed as enzyme-mediated drug metabolism at 10 uM after 120 mins by LC-MS/MS analysis in presence of NADPH; conditions: read-out: Compound recovery
Chain of CYP2D6 (P10635 whole entry): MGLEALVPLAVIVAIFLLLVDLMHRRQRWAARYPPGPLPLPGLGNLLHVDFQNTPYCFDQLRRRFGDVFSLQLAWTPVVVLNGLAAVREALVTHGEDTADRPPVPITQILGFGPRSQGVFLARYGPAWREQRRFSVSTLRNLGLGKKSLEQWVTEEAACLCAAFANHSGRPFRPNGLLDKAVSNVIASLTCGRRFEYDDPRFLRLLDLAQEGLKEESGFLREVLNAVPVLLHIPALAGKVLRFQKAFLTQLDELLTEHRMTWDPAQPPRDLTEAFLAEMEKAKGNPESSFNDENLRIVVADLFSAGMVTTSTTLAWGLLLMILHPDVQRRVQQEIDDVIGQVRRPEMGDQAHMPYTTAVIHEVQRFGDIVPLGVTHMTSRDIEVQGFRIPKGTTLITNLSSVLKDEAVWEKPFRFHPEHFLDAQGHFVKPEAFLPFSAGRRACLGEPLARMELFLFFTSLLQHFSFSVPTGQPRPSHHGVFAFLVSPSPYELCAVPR

Cytochrome P450 4F3 = target: T2, Cytochrome P450 4F3 (Homo sapiens, UniProt Q08477); assay: Activity of human recombinant CYP4F3A assessed as enzyme-mediated (3R,3aS,4S,4aR,7R,8aR,9aR)-7-amino-4-((E)-2-(5-(3-fluorophenyl)pyridin-2-yl)vinyl)-3-methyldecahydronaphtho[2,3-c]furan-1(3H)-one formation at 25 uM after 120 mins by LC-MS/MS analysis in presence of NADPH; conditions: 2 h
T2 sequence (Q08477 whole entry): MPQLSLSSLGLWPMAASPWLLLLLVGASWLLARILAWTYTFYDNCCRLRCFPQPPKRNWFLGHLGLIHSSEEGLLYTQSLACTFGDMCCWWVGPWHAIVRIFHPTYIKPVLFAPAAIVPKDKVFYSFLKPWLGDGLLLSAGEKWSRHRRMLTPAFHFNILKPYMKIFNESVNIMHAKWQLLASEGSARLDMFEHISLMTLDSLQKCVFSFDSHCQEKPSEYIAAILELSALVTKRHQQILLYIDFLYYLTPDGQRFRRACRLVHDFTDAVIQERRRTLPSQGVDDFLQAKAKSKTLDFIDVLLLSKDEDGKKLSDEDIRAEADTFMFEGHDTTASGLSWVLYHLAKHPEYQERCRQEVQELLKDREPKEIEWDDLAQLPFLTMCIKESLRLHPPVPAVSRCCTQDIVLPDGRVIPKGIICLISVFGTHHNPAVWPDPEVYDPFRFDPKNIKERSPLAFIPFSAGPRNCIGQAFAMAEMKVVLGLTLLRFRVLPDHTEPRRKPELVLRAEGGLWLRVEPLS

Cytochrome P450 2A6 = Cytochrome P450 2A6 (Homo sapiens, UniProt P11509); assay: Activity of human recombinant CYP2A6 assessed as enzyme-mediated 2-hydroxyethyl (1R,3aR,4aR,6R,8aR,9S,9aS)-9-((E)-2-(5-(3-fluorophenyl)pyridin-2-yl)vinyl)-1-methyl-3-oxododecahydronaphtho[2,3-c]furan-6-ylcarbamate formation at 25 uM after 120 mins by LC-MS/MS analysis in presence of NADPH; conditions: 2 h
Chain of Cytochrome P450 2A6 (P11509 whole entry): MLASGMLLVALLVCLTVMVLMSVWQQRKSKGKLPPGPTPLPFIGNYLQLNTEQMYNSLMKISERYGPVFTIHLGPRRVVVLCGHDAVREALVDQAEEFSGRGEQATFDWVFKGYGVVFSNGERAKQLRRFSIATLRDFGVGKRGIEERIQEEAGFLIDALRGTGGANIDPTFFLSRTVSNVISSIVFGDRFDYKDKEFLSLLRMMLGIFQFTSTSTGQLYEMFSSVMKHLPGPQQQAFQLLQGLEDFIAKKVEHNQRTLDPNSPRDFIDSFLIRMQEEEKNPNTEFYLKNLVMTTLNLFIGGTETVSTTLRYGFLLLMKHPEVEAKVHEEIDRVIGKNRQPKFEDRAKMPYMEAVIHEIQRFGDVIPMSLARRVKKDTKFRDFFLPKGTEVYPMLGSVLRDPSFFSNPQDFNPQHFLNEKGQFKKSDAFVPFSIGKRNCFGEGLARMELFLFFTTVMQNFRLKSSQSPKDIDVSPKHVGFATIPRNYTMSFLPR

Cytochrome P450 2C18 = Cytochrome P450 2C18 (Homo sapiens, UniProt P33260); assay: Activity of human recombinant CYP2C18 assessed as enzyme-mediated 2-hydroxyethyl (1R,3aR,4aR,6R,8aR,9S,9aS)-9-((E)-2-(5-(3-fluorophenyl)pyridin-2-yl)vinyl)-1-methyl-3-oxododecahydronaphtho[2,3-c]furan-6-ylcarbamate formation at 25 uM after 120 mins by LC-MS/MS analysis in presence of NADPH; conditions: 2 h
Chain of Cytochrome P450 2C18 (P33260 whole entry): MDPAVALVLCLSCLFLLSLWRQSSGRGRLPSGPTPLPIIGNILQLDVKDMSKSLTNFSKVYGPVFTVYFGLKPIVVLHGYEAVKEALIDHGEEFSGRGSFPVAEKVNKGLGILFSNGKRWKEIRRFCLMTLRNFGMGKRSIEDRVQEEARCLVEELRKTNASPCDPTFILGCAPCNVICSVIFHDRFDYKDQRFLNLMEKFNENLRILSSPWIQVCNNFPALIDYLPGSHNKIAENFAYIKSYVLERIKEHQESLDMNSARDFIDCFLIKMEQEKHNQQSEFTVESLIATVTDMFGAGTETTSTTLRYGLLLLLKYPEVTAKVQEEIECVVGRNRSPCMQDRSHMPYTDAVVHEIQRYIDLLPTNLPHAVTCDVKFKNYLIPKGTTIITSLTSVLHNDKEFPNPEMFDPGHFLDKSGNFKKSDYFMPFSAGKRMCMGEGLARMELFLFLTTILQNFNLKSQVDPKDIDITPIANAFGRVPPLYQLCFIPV

Cytochrome P450 2C19 = Cytochrome P450 2C19 (Homo sapiens, UniProt P33261); assay: Activity of human recombinant CYP2C19 assessed as enzyme-mediated 2-hydroxyethyl (1R,3aR,4aR,6R,8aR,9S,9aS)-9-((E)-2-(5-(3-fluorophenyl)pyridin-2-yl)vinyl)-1-methyl-3-oxododecahydronaphtho[2,3-c]furan-6-ylcarbamate formation at 25 uM after 120 mins by LC-MS/MS analysis in presence of NADPH; conditions: 2 h
Chain of Cytochrome P450 2C19 (P33261 whole entry): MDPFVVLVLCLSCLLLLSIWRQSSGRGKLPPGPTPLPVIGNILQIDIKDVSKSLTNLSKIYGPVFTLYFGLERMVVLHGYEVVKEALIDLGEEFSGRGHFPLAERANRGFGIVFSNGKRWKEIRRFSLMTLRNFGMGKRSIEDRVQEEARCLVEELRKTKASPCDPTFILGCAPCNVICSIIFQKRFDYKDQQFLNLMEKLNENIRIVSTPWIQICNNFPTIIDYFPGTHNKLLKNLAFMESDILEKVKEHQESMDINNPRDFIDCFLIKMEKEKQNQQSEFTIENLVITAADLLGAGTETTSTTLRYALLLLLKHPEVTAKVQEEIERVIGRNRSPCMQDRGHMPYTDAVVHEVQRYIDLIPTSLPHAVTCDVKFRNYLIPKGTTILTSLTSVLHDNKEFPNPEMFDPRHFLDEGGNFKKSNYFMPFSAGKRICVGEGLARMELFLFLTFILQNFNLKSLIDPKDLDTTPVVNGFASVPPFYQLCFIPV

Cytochrome P450 3A5 = Cytochrome P450 3A5 (Homo sapiens, UniProt P20815); assay: Activity of human recombinant CYP3A5 assessed as enzyme-mediated 2-hydroxyethyl (1R,3aR,4aR,6R,8aR,9S,9aS)-9-((E)-2-(5-(3-fluorophenyl)pyridin-2-yl)vinyl)-1-methyl-3-oxododecahydronaphtho[2,3-c]furan-6-ylcarbamate formation at 25 uM after 120 mins by LC-MS/MS analysis in presence of NADPH; conditions: 2 h
Chain of Cytochrome P450 3A5 (P20815 whole entry): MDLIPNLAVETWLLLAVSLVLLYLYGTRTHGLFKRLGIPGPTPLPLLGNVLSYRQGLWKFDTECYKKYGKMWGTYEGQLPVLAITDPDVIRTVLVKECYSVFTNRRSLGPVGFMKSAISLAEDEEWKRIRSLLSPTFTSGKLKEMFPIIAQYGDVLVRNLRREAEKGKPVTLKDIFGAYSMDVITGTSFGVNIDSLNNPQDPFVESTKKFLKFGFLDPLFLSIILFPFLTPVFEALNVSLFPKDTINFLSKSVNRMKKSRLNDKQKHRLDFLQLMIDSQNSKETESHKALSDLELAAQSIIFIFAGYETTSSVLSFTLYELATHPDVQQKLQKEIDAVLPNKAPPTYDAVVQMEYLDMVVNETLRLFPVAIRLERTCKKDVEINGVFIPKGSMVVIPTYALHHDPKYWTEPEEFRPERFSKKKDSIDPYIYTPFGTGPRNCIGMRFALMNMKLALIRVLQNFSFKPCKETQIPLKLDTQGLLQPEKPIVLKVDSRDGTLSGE

C[C@H]1OC(=O)[C@@H]2C[C@@H]3C[C@H](NC(=O)OCCO)CC[C@H]3[C@H](/C=C/c3ccc(-c4cccc(F)c4)cn3)[C@H]12
Drug metabolism (Cytochrome P450 2J2): metabolite_detected
Drug metabolism (Cytochrome P450 2E1): metabolite_detected

CCOC(=O)N[C@@H]1CC[C@@H]2[C@@H](C1)C[C@H]1C(=O)O[C@H](C)[C@H]1[C@H]2/C=C/c1ccc(-c2cccc(F)c2)cn1 [VORAPAXAR]
Drug metabolism (Liver microsome [1]): metabolite_not_detected
Drug metabolism (Liver microsome [2]): metabolite_not_detected
Drug metabolism (Liver microsome [3]): metabolite_not_detected
Drug metabolism (Cytochrome P450 3A4): metabolite_not_detected
remaining at 2 h, 10 µM [4]: 92.7%
remaining at 2 h, 10 µM (CYP1A1): 96.3%
remaining at 2 h, 10 µM (CYP2D6): 98.1%

CCOC(=O)N[C@@H]1CC[C@@H]2[C@@H](C1)C[C@H]1C(=O)O[C@H](C)[C@H]1[C@H]2/C=[14CH]/c1ccc(-c2cccc(F)c2)cn1
Drug metabolism (Cytochrome P450 4F3): metabolite_detected
Drug metabolism (Cytochrome P450 2A6): metabolite_detected
Drug metabolism (Cytochrome P450 2C18): metabolite_detected
Drug metabolism (Cytochrome P450 2C19): metabolite_detected
Drug metabolism (Cytochrome P450 3A5): metabolite_detected
